Experimental findings from patent US20120010177A1, “MicroRNA Modulators and Method for Identifying And Using The Same” (The Wistar Institute / North Carolina State University, priority 2008, published 2012) are described below.

Broadly, the AC50 is the concentration at which the activity in the assay is half-maximal.

The test system of one test is miR-21. Kind of test: High throughput primary miR-21 FLuc reporter assay (concentration-response). As to conditions: HeLa Luc-miR-21 reporter, 48-hour incubation. Format: cell-based, human. An outline of the steps: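 HeLa cells carrying a Luc-miR-21 firefly luciferase reporter were treated with compound for 48 h. miR-21 inhibition was read as increased luciferase signal. Concentration-response data were fitted with a four-parameter logistic model.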
A general note: Reporter assays use an easily measured gene product as a stand-in for the process of interest.
`COc1ccc2cc(OCC(=O)NNC(=O)Nc3ccc(C(C)=O)cc3)ccc2c1` [Compound 183, COC1═C/C═C2/C═C(OCC(═O)NNC(═O)NC3═C/C═C(\C═C\3)C(C)═O)\C═C/C\2═C\1] gave an Efficacy of −65.21.

The same test, now with this note: HeLa Luc-miR-21 reporter, 48-hour incubation, four parameter logistic fit.
Consider `COc1ccc2cc(OCC(=O)NNC(=O)Nc3ccc(C(C)=O)cc3)ccc2c1` [Compound 183, COC1═C/C═C2/C═C(OCC(═O)NNC(═O)NC3═C/C═C(\C═C\3)C(C)═O)\C═C/C\2═C\1], for which the “Curve Class” value is recorded as −2.2.

The test is the same for the next values; noted with them: HeLa Luc-miR-21 reporter, 48-hour incubation; read-out: AC50.
Regarding `COc1ccc2cc(OCC(=O)NNC(=O)Nc3ccc(C(C)=O)cc3)ccc2c1` [Compound 183, COC1═C/C═C2/C═C(OCC(═O)NNC(═O)NC3═C/C═C(\C═C\3)C(C)═O)\C═C/C\2═C\1], the concentration at half-maximal activity (AC50) was determined as 16.5 µM.

Staying with this test, now noted: Homo sapiens.
`COP(=O)(OC)C(Nc1ccc(C)cc1)c1ccc([N+](=O)[O-])cc1` (centres unmarked) [Compound 286] returned a concentration at half-maximal activity (AC50) of 10.4 µM.

The compound `CC(=O)COc1ccc2c3c(c(=O)oc2c1C)CCCCC3` [Compound 261] displayed a half-maximal activity concentration (AC50) of 3.29 µM.

The test is the same for the next values; noted with them: Homo sapiens, HeLa, 48 h, HeLa Luc-miR-21 reporter, 48-hour incubation; read-out: AC50.
With `COc1cccc(-n2nnc(-c3nc(-c4cccs4)no3)c2N)c1` [Compound 13], the AC50 was found to be 1.04 µM.

For `Cc1ccccc1Nc1nc(N)nc(CCC(=O)c2ccc(O)cc2)n1` [Compound 69], the AC50 is 18.5 µM.

On to `Cc1ccc(OCCn2cnc3c(N)ncnc32)cc1` [Compound 240], for which the AC50 is 16.5 µM.

Turning to `Cc1cc(C(F)(F)F)c(C#N)c(SCC(=O)Nc2nc3cc(Br)ccc3s2)n1` [Compound 129], the AC50 worked out at 3.69 µM.

`CC(=O)Nc1nc2c(C)cc(NC(=O)C3CCCCC3)cc2s1` [Compound 97]: the concentration at half-maximal activity (AC50) was 14.7 µM.

Take `COc1ccc(NC(=O)c2nnn(CC(=O)Nc3cccc(C)c3C)c2N)c(OC)c1` [Compound 102]: the half-maximal activity concentration (AC50) was 13.1 µM.

Regarding `Cc1ccc(SCC(=O)Nc2ccc3oc(-c4ccc(F)cc4)nc3c2)cc1` [Compound 140], the AC50 was 7.36 µM.

For `Cc1ccc(CNc2nc(-c3ccco3)nn2S(C)(=O)=O)cc1` [Compound 29], the AC50 stood at 0.58 µM.

As to `Cc1ccc(C)c(-n2nnc(-c3nc(-c4ccc(Cl)cc4)no3)c2N)c1` [Compound 21], the AC50 turned out to be 1.31 µM.

For the compound `COc1ccc(N/C(S)=N/NC(=O)c2cccs2)cc1` [Compound 208], the AC50 was 7.36 µM.

For `CSc1nsc(SCC(=O)Nc2ccc(F)cc2F)n1` [Compound 131], the AC50 came out at 4.14 µM.

For `O=C(Nc1nnc(S(=O)(=O)N2CCCC2)s1)c1ccc(F)cc1` [Compound 106], the AC50 is 3.69 µM.

As to `Cc1ccccc1Nc1nc(N)nc(CSc2nnc3ccccn23)n1` [Compound 64], the AC50 turned out to be 16.5 µM.

As to `Cc1cc(CC(C)C)n(-c2nc3ccccc3c(=O)n2OCC(N)=O)n1` [Compound 180], the AC50 was found to be 14.7 µM.

Regarding `Cc1cc(C)c(C#N)c(SCC(=O)Nc2ccc3c(c2)OCO3)n1` [Compound 128], the AC50 is 3.29 µM.

`COc1ccc(NC(=O)C/C(C)=N/NC(=O)c2ccco2)c([N+](=O)[O-])c1` [Compound 237]: the concentration at half-maximal activity (AC50) stood at 20.8 µM.

As to `C/C(CCc1ccc2c(c1)OCO2)=N\NC(=O)c1ccccc1` [Compound 225], the AC50 is 13.1 µM.

Turning to `Cc1cccc(-c2nnc(SCC(=O)Nc3ccc(C)c(C)c3)o2)c1` [Compound 134], the half-maximal activity concentration (AC50) is 5.85 µM.

For `Cc1cc(Cl)c2oc(C(=O)N(CCO)Cc3ccccc3)c(C)c2c1` [Compound 78], the half-maximal activity concentration (AC50) worked out at 14.7 µM.

With `Cc1c(-c2nnc(SCC(=O)Nc3ccccc3F)o2)nnn1-c1ccc(F)cc1` [Compound 127], the half-maximal activity concentration (AC50) is 2.93 µM.

Consider `O=C(CSc1nnc(-c2ccc(C(F)(F)F)cn2)o1)Nc1cccc(Cl)c1` [Compound 132], for which the concentration at half-maximal activity (AC50) came to 4.14 µM.

Turning to `c1ccc(CSc2nnc3ccc(-c4cccs4)nn23)nc1` [Compound 44], the AC50 is 7.36 µM.

Regarding `NC(=O)c1ccccc1NC(=O)c1ccc(-c2ccc(Br)cc2)o1` [Compound 105], the AC50 turned out to be 1.17 µM.

As to `O=C(CCc1ccccc1)Nc1cccnc1Cl` [Compound 96], the half-maximal activity concentration (AC50) came to 13.1 µM.

As to `O=C(CSc1nnc(-c2ccc(Br)cc2)o1)Nc1cccc2ccccc12` [Compound 164], the AC50 is 18.5 µM.

Take `O=C(N/N=C1\CC2C=CCC12)c1cccs1` (centres unmarked) [Compound 221]: the concentration at half-maximal activity (AC50) amounted to 11.7 µM.

For the compound `Fc1cccc(Cl)c1CSc1nnc2ccccn12` [Compound 46], the AC50 came out at 10.4 µM.

Turning to `Nc1ncnc(Nc2ccc(F)c(Cl)c2)n1` [Compound 65], the AC50 came to 16.5 µM.

For the compound `Cc1cccc(-n2nnc(-c3nc(-c4cccs4)no3)c2N)c1` [Compound 11], the half-maximal activity concentration (AC50) was 0.33 µM.

On to `O=C(CCc1ccccc1)n1nc(-c2ccco2)nc1SCc1ccccc1` [Compound 53], for which the AC50 stood at 18.5 µM.

`COCc1cc(C)nc2sc(C(=O)Nc3ccccc3O)c(N)c12` [Compound 86]: the half-maximal activity concentration (AC50) turned out to be 13.1 µM.

As to `CC(=O)Nc1ccccc1NC(=O)C/C(C)=N/NC(=O)c1ccccn1` [Compound 189], the AC50 amounted to 1.85 µM.

Regarding `C/C(=N\NC(=O)c1ccc(Br)o1)c1ccc(C)o1` [Compound 216], the AC50 is 10.4 µM.

As for `CC(=O)c1cnc2nc(SCc3ccccc3)nn2c1C` [Compound 43], the half-maximal activity concentration (AC50) came to 5.21 µM.

Consider `CC(=O)n1nc(-c2ccccc2)nc1NCc1cccs1` [Compound 42], for which the concentration at half-maximal activity (AC50) is 18.5 µM.

`CCCNc1nc(C)nc2c1cnn2CCc1ccccc1` [Compound 248]: the AC50 amounted to 14.7 µM.

As to `CCc1ccc(-n2nnc(-c3nc(-c4cccs4)no3)c2N)cc1` [Compound 15], the AC50 is 1.17 µM.

Regarding `O=C(N/N=C1\CC2C=CCC12)c1ccco1` (centres unmarked) [Compound 199], the AC50 was found to be 5.21 µM.

On to `COCC(=O)Nc1nnc(C2CCCCC2)s1` [Compound 176], for which the half-maximal activity concentration (AC50) was found to be 16.5 µM.

With `C/C(=N\NC(=O)c1ccco1)c1ccc(C(=O)O)s1` [Compound 196], the concentration at half-maximal activity (AC50) is 4.65 µM.

For `Cc1c(C(=O)N(C)C(C)c2ccccn2)oc2c(F)cccc12` (centres unmarked) [Compound 75], the AC50 came to 13.1 µM.

With `Cc1ccc(C)c(N/C(S)=N/NC(=O)c2csc(C)c2C)c1` [Compound 207], the AC50 turned out to be 6.56 µM.

For `Cc1ccccc1OCCn1cnc2c(N)ncnc21` [Compound 239], the half-maximal activity concentration (AC50) came to 9.27 µM.

Consider `COc1ccc(-c2nc(SCc3ccccc3)n(S(C)(=O)=O)n2)cc1` [Compound 48], for which the half-maximal activity concentration (AC50) stood at 13.1 µM.

On to `Cc1ccccc1OCCSc1nnc(C)n1-c1ccccc1` [Compound 50], for which the AC50 stood at 14.7 µM.

Turning to `Cc1ccc(-c2noc(-c3nnn(CC(=O)Nc4cccc(C(F)(F)F)c4)c3N)n2)cc1` [Compound 27], the half-maximal activity concentration (AC50) stood at 0.74 µM.

As for `CN(C(=O)CSc1nnc(-c2ccccc2F)o1)C1CCCCC1` [Compound 143], the half-maximal activity concentration (AC50) is 9.27 µM.

Take `Cc1ccc(-n2nnc(-c3nc(-c4cccs4)no3)c2N)cc1C` [Compound 14]: the half-maximal activity concentration (AC50) was 1.65 µM.

For the compound `CCCC(=O)Nc1ccc(NC(=O)C23CC4CC(CC(C4)C2)C3)cn1` [Compound 99], the AC50 was 18.5 µM.

For `Nc1c(-c2nc(-c3cccs3)no2)nnn1-c1ccccc1Cl` [Compound 22], the AC50 stood at 0.09 µM.

In the case of `Nc1nc(CSCc2ccccc2)nc(N2CCOCC2)n1` [Compound 62], the AC50 came out at 14.7 µM.

Regarding `COc1ccc(NC(=O)CSc2nnc(-c3cccs3)o2)cc1` [Compound 137], the AC50 was 6.56 µM.

The same test, now with this note: Homo sapiens, Table 12 singletons; read-out: AC50.
Turning to `c1ccc(C2=Nn3c(nnc3-c3cc(-c4ccccc4)[nH]n3)SC2)cc1` [Compound 265], the AC50 was found to be 3.69 µM.

With `O=C(CCS(=O)(=O)c1ccccc1)Nc1ccc(-c2nc3ccccc3s2)cc1` [Compound 249], the half-maximal activity concentration (AC50) came out at 0.26 µM.

Consider `Cc1ccc2nc(C)c(/C=C/C(=O)c3ccco3)cc2c1` [Compound 297], for which the AC50 is 14.7 µM.

For `CCc1ccc(N2C(=O)Cc3c2nc(N)c(C#N)c3N)cc1` [Compound 318], the concentration at half-maximal activity (AC50) turned out to be 16.5 µM.

As to `Cc1nc2ccc(/N=C(\S)N3CCC(C)CC3)cc2nc1C` [Compound 296], the concentration at half-maximal activity (AC50) amounted to 13.1 µM.

Take `CNc1nc(C)c(C(=O)OCc2ccccc2)s1` [Compound 316]: the concentration at half-maximal activity (AC50) is 16.5 µM.

Regarding `CCC(=O)Oc1ccc(NC(=O)CSCc2ccccc2)cc1` [Compound 288], the AC50 was determined as 11.7 µM.

On to `O=C(c1ccc(COCC(F)(F)F)cc1)N1CCN(c2ccccn2)CC1` [Compound 298], for which the AC50 was found to be 14.7 µM.

Turning to `O=c1c(NCc2cccs2)nccn1-c1ccc(F)cc1` [Compound 328], the concentration at half-maximal activity (AC50) stood at 16.5 µM.

As to `CCCCC12CN3CCN(CC(C3)/C1=N/NC(=O)c1ccccc1N)C2` [Compound 285], the AC50 is 9.27 µM.

In the case of `COc1ccc(-c2nc3c(Br)c(N)c(Br)cc3o2)cc1` [Compound 256], the AC50 was 2.07 µM.

For `O=C(CN1c2ccc(Br)cc2-c2ccccc2[S+]1(=O)[O-])N1CCCCC1` [Compound 345], the AC50 stood at 9.27 µM.

Turning to `CC(=O)N1CCN(c2nc3c(F)cc(F)cc3s2)CC1` [Compound 254], the concentration at half-maximal activity (AC50) came out at 1.85 µM.

Turning to `O=C(Nc1ccc(N2CCOCC2)cc1)c1cc(F)c(F)cc1Cl` [Compound 330], the AC50 came to 16.5 µM.

Regarding `CCOc1cccc(OCCOc2ccccc2[N+](=O)[O-])c1` [Compound 303], the AC50 stood at 14.7 µM.

With `NC(=O)COC(=O)c1ccc2noc(-c3ccccc3)c2c1` [Compound 274], the AC50 was determined as 6.56 µM.

In the case of `CCn1c(=O)c(C(=O)Nc2ccccc2S(N)(=O)=O)c(O)c2ccccc21` [Compound 309], the AC50 was 14.7 µM.

In the case of `c1ccc(-c2nnc(CN3CCCCC3)o2)cc1` [Compound 327], the concentration at half-maximal activity (AC50) turned out to be 16.5 µM.

As to `COc1ccc(C2Nc3ccccc3C(=O)N2c2ccc(C)cc2)cc1Cn1nc(C)c([N+](=O)[O-])c1C` (centres unmarked) [Compound 347], the AC50 was 3.09 µM.

In the case of `Cc1ccc(/C=N/NC(=O)NC2CCCCC2)o1` [Compound 342], the AC50 was determined as 18.5 µM.

For `O=C(NC12CC3CC(CC(C3)C1)C2)N1CCN(C(=O)c2ccco2)CC1` [Compound 317], the half-maximal activity concentration (AC50) was determined as 16.5 µM.

On to `CCc1ccc(NC(=O)NCCCN2CCCC2=O)cc1` [Compound 291], for which the AC50 is 11.7 µM.

For `COc1ccc(-c2nn3c(-c4ccccc4)nnc3s2)cc1OC` [Compound 310], the half-maximal activity concentration (AC50) was 14.7 µM.

Regarding `COc1ccc(NCc2cccn2-c2nnc(N3CCC(C)CC3)s2)c(OC)c1` [Compound 255], the half-maximal activity concentration (AC50) turned out to be 1.85 µM.

As for `O=S(=O)(c1ccc(F)cc1)n1ccc(-c2cnc(-c3ccccc3)s2)n1` [Compound 260], the AC50 worked out at 2.93 µM.

The same test, now with this note: Table 12 singletons; read-out: AC50.
On to `Cn1nc(NC(=O)C(F)(F)F)c2ncc(-c3ccc(Cl)cc3)nc21` [Compound 292], for which the concentration at half-maximal activity (AC50) came out at 13.1 µM.
